# Measured values from patent US8642008B2, “Molecular probe for imaging of pancreatic islets and use of the same” (priority 2009, dated 2014).
# Key:
# [1] = system: GLP-1R-positive tumor cells; details: cited from earlier work
# [2] = system: pancreatic islets; details: cited from earlier work
# [3] = system: pancreatic β-cells; experiment: Two-dimensional imaging analysis of pancreas sections of MIP-GFP mice (fluorescence and autoradiography); format: in vivo, mouse
# Procedure: Two-dimensional imaging analysis was performed using transgenic mice that have a genetic background of C57BL/6 mice and express GFP (green fluorescent protein) under regulation of MIP (mouse insulin I gene promoter) (hereinafter these mice are referred to as “MIP-GFP mice”). […] Sections were cut out of the dissected pancreases, and each section was placed on a slide glass, covered with a cover glass. Fluorescence and radioactivity (autoradiography) of each section were determined using an image analyzer (trade name: Typhoon 9410, produced by GE Health Care Inc.) (exposure time: 14 hours).
# Sections were cut out of the dissected pancreases, and fluorescence and radioactivity of each section were determined in the same manner as described above.
# DPP (dipeptidyl peptidase) IV inhibitor (0.1 mL of 6 mg/mL solution) was administered by intravenous injection to unanesthetized MIP-GFP mice (male, weight: 20 g), and these mice were used as controls 1-2. […] Sections were cut out of the dissected pancreases, and fluorescence and radioactivity of each section were determined in the same manner as described above. […]
# Sections were cut out of the dissected pancreases, and fluorescence and radioactivity of each section thus obtained were determined in the same manner as described above.
# [4] = mouse, iv
# Procedure: (§1) At points of 5 minutes, 15 minutes, 30 minutes, 60 minutes, and 120 minutes after the administration, organs were dissected out of the mice, respectively (n=5). The weight and the radioactivity of each organ were determined, and an accumulation amount (% dose/g) of the molecular probe was calculated from the radioactivity per unit weight. […] FIG. 1A is a graph showing how the accumulation of the molecular probe in each organ varied with time, and FIG. 1B is a graph of an enlarged part of FIG. 1A.
# 1, biodistribution of the same in a mouse was determined. […] The determination of biodistribution was carried out in the same manner as that in Example 1.
# as §1, with “5A” for “1A”, “5B” for “1B”, “5A.” for “FIG. 1A.”
Substance,uptake in the GLP-1R-positive tumor cells [1],uptake in pancreatic islets [2],localization of the radioactivity signal versus GFP signal in pancreas sections ([3]; 30 and 60 minutes after administration),radioactivity signal of pancreas sections after preliminary administration of cold probe exendin(9-39) ([3]; 30 minutes after probe),"accumulation amount in the pancreas, times as much as that in the intestine ([4]; in vivo)","accumulation amount in the pancreas, times as much as that in the stomach ([4]; in vivo)",change with time of accumulation in the thyroid gland (deiodization metabolism in vivo) [4]
Lys^40(Ahx-DTPA-^111In)Exendin-(9-39),about 7.5%,about 0.4%,,,,,
"formula (35): exendin(9-39) sequence, α-amino group at N-terminus labeled with [125I] 3-iodobenzoyl group, C-terminus amidated",,,consistent with that of the GFP signal,substantially no radioactivity signal was detected,not less than 11 times,not less than 3 times,no great change
